# Reference: patent US12377067B2, “Methods of treating PAH with combinations of ralinepag and other agents” (Arena Pharmaceuticals, Inc., priority 2016, dated 2025)
# Where two headings read alike, the source gives them in different places.
# Legend:
# [1] = system: human PASMCs from PAH patients; assay: Cyclic AMP assay; assay type: cell-based
# Method: Human PASMCs from PAH patients were grown to 70-80% confluence in 12 well plates in DMEM/F12 containing 9% foetal bovine serum (FBS), penicillin (50 U/ml)/streptomycin (50 ag/ml). To assess the time-course of cAMP elevation, cells were stimulated with 100 nM ralinepag for varying times (0.5, 1, 2, 4, 8, 24, 48 hours). This dose of ralinepag was chosen on the basis that it was close to the EC50 for cAMP generation in preliminary experiments. In other experiments, the IP receptor agonist was added for a specified time (60 minutes) over a full concentration range (0.1-10,000 nM) in the absence and presence of […] of the IP receptor antagonist, RO-1138452. The antagonist is added 30 minutes beforehand and remained throughout.
# To extract cyclic AMP, the medium was aspirated and PASMCs cells incubated in 0.1 M HCl for 20 minutes on ice followed by centrifugation at 1000 g for 10 minutes at 4° C. The protein concentration in the supernatant was determined using a […] protein assay (BCA, Novagen, EmD Chemicals, CA, USA). Intracellular cyclic AMP was measured using a competitive enzyme immunoassay 96 well plate kit (ADI-900-163, Enzo Life Sciences, Exeter, UK) and the assay performed according to the manufacturer's instructions. Each sample was run in duplicate and data expressed as pmol of cAMP per mg of total protein for each individual sample. Basal levels were subtracted from each agonist concentration data point. Given the large variation (˜15-fold) in cAMP generation from different patient samples, data was also normalized to the peak cyclic AMP response (assigned 100%) in each cell isolate.
# Half-life in vivo = details: irrespective of the dose
# [2] = 22-week randomized, double-blind, placebo-controlled clinical trial; assay type: in vivo, patients
# Method: A 22-week randomized, double-blind, placebo-controlled study with a dose titration period of up to 9 weeks was conducted. Sixty-one patients were randomized 2:1 ralinepag to placebo. Right Heart Catheterization (RHC) measurements were obtained prior to study Day 1 of the dose titration period and at Week 22. The following values were obtained and recorded: pulmonary artery pressure (PAP) (systolic, diastolic, and mean), heart rate (HR), right atrial pressure (RAP), pulmonary capillary wedge pressure (PCWP) right ventricular pressure (RVP) and cardiac output (CO), pulmonary vascular resistance (PVR), arterial and mixed venous oxygen saturation (FiO2) (if applicable). Systemic vascular resistance (SVR) was estimated from blood pressure measurements. All patients were receiving background PAH treatment with an endothelin receptor antagonist, phosphodiesterase type-5-inhibitor, or soluble guanylate cyclase activator, alone or in combination.
# The primary efficacy endpoint for the study was change from baseline in PVR after 22 weeks of treatment. Additional analyses included change from baseline in 6 MWD after 22 weeks of treatment, hemodynamics, and safety and tolerability. Ralinepag was administered as a capsule in 0.01, 0.02, 0.03, 0.04, and 0.10 mg dose strengths.
# The starting dose of ralinepag was 0.01 mg twice daily. The dose of ralinepag was titrated according to patient tolerability. If the initial dose was tolerated (0.01 mg twice daily), then the dose was increased once a week in the following fashion: 0.02 mg twice daily, 0.03 mg twice daily, 0.04 mg twice daily, 0.06 mg twice daily, 0.08 mg, 0.1 mg twice daily, 0.2 mg twice daily and 0.3 mg twice daily. The dose was optionally escalated to a possible maximum total daily dose of 0.6 mg (0.3 mg twice daily), pending tolerability.
# [3] = system: human PASMCs from PAH patients; assay: Cell proliferation assay (MTS), serum-induced growth; assay type: cell-based; details: for Emax: read-out: Emax (% Inhibition); for times more potent than ralinepag alone: individual fits (Table 1)
compound,measurement,setting,value
"O=C(O)COC[C@H]1CC[C@H](COC(=O)N(c2ccccc2)c2ccc(Cl)cc2)CC1 [ralinepag, 2-(((1r,4r)-4-(((4-chlorophenyl)(phenyl)carbamoyloxy)methyl)cyclohexyl)methoxy)acetic acid]",EC50,"[1]; Homo sapiens, PASMC, preliminary experiments, read-out: EC50 for cAMP generation",~100 nM
same,maximal effect compared with treprostinil,[1]; cyclic AMP assay,weaker maximal effects
same,fold more cyclic AMP than MRE-269,[1]; ralinepag vs MRE-269,2 fold
same,plasma half-life,Half-life in vivo,relatively long plasma half-life
same,6-minute walk distance (6MWD),[2]; after 22 weeks,numerical improvement
same,change from baseline in pulmonary vascular resistance (PVR),"[2]; after 22 weeks, compared to placebo, on background PAH treatment",statistically significant change from baseline
same,adverse events,"[2]; human, in vivo",consistent with other prostacyclin treatments
same,inhibition at 0.001 µM,"[3]; Homo sapiens, PASMC, 1 nM ralinepag in the presence of 100 nM sildenafil",27%
same,inhibition at 0.01 µM,"[3]; Homo sapiens, PASMC, 10 nM ralinepag combined with 100 nM riociguat",45%
same,inhibition at 10 µM,"[3]; Homo sapiens, PASMC, 10 μM ralinepag in the presence of 100 nM sildenafil",56%
same,inhibition at 10 µM,"[3]; Homo sapiens, PASMC, 10 μM ralinepag in the presence of 100 nM treprostinil",69%
same,EC50,"[3]; Homo sapiens, PASMC, 96 h, log EC50 printed with negative sign, ralinepag alone or + 100 nM drug, from individual fits, 9% FBS + 0.1% DMSO, 4 days, read-out: Log EC50 (n = 5) (converted)",25.1 nM
same,EC50,"[3]; Homo sapiens, PASMC, 96 h, log EC50 printed with negative sign, ralinepag alone or + 100 nM drug, from mean fits, 9% FBS + 0.1% DMSO, 4 days, read-out: Log EC50 (n = 5) (converted)",44.7 nM
same,Emax,"[3]; Homo sapiens, PASMC, 96 h, ralinepag alone or + 100 nM drug, from individual fits, 9% FBS + 0.1% DMSO, 4 days",58.2 ± 4.1%
same,EC50,"[3]; Homo sapiens, PASMC, 96 h, ralinepag alone or + 100 nM drug, from mean fits, 9% FBS + 0.1% DMSO, 4 days, read-out: EC50",44 nM
same,Emax,"[3]; Homo sapiens, PASMC, 96 h, ralinepag alone or + 100 nM drug, from mean fits, 9% FBS + 0.1% DMSO, 4 days",59.6 ± 17.3%
same,EC50,"[3]; Homo sapiens, PASMC, ralinepag in the presence of 100 nM sildenafil, individual fits, read-out: EC50",5 nM
same,dose of ralinepag at which cell proliferation was inhibited,[3]; combined with 100 nM macitentan,0.1 nM
same,dose of ralinepag at which significant inhibition of cell growth occurred,[3]; combined with 100 nM treprostinil,0.1 nM
same,fold lower dose of ralinepag giving significant inhibition of cell growth,[3]; combined with 100 nM treprostinil vs ralinepag alone,10 fold
same,antiproliferative effect compared to ralinepag alone,"[3]; in the presence of 100 nM bosentan, mean data",not more effective
same,antiproliferative effect compared to ralinepag alone,"[3]; in the presence of 100 nM macitentan, mean data",not significantly more effective
same,fold lower dose of ralinepag giving significant inhibition of cell growth,[3]; in the presence of 100 nM riociguat vs ralinepag alone,100 fold
same,antiproliferative effect compared to ralinepag alone,"[3]; in the presence of 100 nM riociguat, 0.01-10,000 nM ralinepag, mean data",significantly more effective at 10 nM and above
same,times more potent than ralinepag alone,[3]; in the presence of 100 nM riociguat,~2.5 times
same,potency enhancement,"[3]; in the presence of 100 nM riociguat, mean fits (Table 2)",8 fold
same,antiproliferative effect compared to ralinepag alone,"[3]; in the presence of 100 nM sildenafil, 0.01-10,000 nM ralinepag","significantly (P<0.001, two-way ANOVA) more effective"
same,times more potent than ralinepag alone,[3]; in the presence of 100 nM sildenafil,~5 times
same,maximum response compared to ralinepag alone,[3]; in the presence of riociguat or treprostinil (100 nM),significantly greater maximum response
same,concentration at which ralinepag started to significantly inhibit cell proliferation,"[3]; ralinepag alone, not lowered by 100 nM bosentan",InM
